Experimental data from ChEMBL document CHEMBL1201862, “PubChem BioAssay data set” (2004).
Active and inactive are the calls of the source.

Key:
INS1 = assay: beta cell apoptosis inhibitors, cytokine rescue, dose response, luminescence, retest (AID 449756); assay type: functional, cell-based; conditions: Rattus norvegicus;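 note: cell death triggered by IL-1 beta plus TNF-alpha plus IFN-gamma mixture; protective hits raise ATP signal compared with cytokine alone wells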
[1] = biological target: T1, Sentrin-specific protease 8 (Homo sapiens, UniProt Q96LD8); assay type: functional
T1 sequence (Q96LD8 whole entry): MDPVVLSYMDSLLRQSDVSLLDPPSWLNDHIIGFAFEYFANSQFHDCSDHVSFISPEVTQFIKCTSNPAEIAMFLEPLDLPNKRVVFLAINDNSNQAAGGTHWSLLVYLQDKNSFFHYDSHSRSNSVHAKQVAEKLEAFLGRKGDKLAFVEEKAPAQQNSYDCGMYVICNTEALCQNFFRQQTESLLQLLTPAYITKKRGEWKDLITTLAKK

[2] = biological target: Mitochondrial peptide methionine sulfoxide reductase (Bos taurus, UniProt P54149); assay type: functional;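 note: absorbance read-out, biochemical high-throughput dose-response screen for MsrA inhibitors, confirmatory; recombinant bovine MsrA coupled to E. coli TrxB with NADPH and selenocystamine; potency is for inhibitors of MsrA activity on DMSO substrate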
Chain of Mitochondrial peptide methionine sulfoxide reductase (P54149 whole entry): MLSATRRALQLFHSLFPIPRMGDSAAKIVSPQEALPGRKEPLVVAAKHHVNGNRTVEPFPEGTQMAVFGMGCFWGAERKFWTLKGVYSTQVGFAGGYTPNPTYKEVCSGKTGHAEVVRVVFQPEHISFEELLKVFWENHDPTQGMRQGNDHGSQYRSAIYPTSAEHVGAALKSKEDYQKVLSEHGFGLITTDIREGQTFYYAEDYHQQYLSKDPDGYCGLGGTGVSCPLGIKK

[3] = biological target: T1, Sentrin-specific protease 8; assay type: functional; remark: listed apart in the source
[4] = biological target: T2, Low molecular weight phosphotyrosine protein phosphatase (Homo sapiens, UniProt P24666); assay type: functional; conditions: read-out: IC50_Mean
T2 sequence (P24666 whole entry): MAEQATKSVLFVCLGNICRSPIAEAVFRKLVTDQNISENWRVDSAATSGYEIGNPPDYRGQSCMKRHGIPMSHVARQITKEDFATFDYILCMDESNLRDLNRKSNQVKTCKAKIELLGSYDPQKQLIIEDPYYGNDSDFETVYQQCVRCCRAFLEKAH

[5] = biological target: T2, Low molecular weight phosphotyrosine protein phosphatase; assay type: functional; conditions: read-out: IC50_Mean; remark: listed apart in the source
[6] = biological target: T3, Tyrosine-protein phosphatase non-receptor type 22 (Homo sapiens, UniProt Q9Y2R2); assay: LYP phosphatase inhibition for selectivity, dose response, selectivity assay for LMPTP inhibitor project, biochemical, fluorescence, LYP catalytic domain (AID 652006); assay type: functional; conditions: read-out: IC50_Mean
T3 sequence (Q9Y2R2 whole entry): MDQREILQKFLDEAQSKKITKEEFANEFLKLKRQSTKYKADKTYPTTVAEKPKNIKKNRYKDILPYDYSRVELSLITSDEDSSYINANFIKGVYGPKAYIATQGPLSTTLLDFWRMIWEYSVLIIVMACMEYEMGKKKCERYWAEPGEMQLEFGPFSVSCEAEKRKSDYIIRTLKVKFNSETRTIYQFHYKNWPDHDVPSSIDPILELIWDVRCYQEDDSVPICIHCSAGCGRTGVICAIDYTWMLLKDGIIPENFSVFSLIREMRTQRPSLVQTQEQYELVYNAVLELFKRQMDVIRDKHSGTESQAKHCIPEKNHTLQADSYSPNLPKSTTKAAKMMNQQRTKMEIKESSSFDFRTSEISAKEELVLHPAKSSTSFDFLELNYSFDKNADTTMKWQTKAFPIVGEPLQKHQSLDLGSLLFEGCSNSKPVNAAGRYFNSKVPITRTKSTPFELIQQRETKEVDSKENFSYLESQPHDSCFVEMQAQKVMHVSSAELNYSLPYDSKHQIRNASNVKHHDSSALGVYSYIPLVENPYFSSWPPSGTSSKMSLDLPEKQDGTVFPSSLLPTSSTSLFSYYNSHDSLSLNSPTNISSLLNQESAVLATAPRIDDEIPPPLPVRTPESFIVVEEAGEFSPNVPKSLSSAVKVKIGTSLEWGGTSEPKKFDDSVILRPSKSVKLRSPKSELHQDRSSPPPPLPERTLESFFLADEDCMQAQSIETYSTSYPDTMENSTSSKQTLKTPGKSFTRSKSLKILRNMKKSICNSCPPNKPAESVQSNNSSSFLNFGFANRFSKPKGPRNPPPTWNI

[7] = biological target: Tyrosine-protein phosphatase non-receptor type 11 (Homo sapiens, UniProt Q06124); assay: SHP2 phosphatase inhibition, dose response, selectivity assay for STEP inhibitor project, biochemical (AID 602367); assay type: functional; conditions: read-out: IC50_Mean
Chain of Tyrosine-protein phosphatase non-receptor type 11 (Q06124 whole entry): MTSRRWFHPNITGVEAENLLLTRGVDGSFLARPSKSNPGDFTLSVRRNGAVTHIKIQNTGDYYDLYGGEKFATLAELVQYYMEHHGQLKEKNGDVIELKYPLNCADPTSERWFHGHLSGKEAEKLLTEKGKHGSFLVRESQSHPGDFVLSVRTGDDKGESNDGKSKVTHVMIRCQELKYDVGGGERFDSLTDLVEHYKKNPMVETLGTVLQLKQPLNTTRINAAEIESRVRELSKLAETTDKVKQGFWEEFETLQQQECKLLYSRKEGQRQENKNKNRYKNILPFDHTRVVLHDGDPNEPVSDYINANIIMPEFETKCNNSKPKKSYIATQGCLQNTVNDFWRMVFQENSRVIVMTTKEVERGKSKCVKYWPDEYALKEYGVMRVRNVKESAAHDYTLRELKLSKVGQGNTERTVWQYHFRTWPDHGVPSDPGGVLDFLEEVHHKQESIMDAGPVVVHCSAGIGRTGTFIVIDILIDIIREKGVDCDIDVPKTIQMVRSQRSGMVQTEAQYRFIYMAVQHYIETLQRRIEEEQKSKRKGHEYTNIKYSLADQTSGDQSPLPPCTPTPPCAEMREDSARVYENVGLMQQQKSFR

[8] = biological target: Tyrosine-protein phosphatase non-receptor type 5 (Homo sapiens, UniProt P54829); assay: STEP phosphatase inhibitors, confirmation, biochemical, fluorescence intensity, uHTS hits (AID 602372); assay type: functional; conditions: read-out: IC50_Mean
Chain of Tyrosine-protein phosphatase non-receptor type 5 (P54829 whole entry): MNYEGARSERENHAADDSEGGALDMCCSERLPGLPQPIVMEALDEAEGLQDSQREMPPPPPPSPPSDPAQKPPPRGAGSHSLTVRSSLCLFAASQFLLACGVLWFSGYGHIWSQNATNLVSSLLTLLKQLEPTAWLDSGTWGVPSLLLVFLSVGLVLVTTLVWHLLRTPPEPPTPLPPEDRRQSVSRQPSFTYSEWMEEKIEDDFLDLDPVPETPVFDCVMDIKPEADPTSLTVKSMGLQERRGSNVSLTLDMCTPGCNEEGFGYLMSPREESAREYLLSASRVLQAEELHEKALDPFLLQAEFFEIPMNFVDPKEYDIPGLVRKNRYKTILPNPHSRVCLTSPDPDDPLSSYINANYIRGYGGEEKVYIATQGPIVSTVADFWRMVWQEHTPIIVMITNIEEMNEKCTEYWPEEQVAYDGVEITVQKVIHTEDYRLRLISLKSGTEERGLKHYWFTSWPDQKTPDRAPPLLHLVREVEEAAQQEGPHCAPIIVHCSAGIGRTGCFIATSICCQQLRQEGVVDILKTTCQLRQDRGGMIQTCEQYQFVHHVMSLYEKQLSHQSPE

[9] = biological target: Dual specificity protein phosphatase 3 (Homo sapiens, UniProt P51452); assay: VHR phosphatase inhibition, dose response, selectivity assay for STEP inhibitor project, biochemical (AID 602374); assay type: functional; conditions: read-out: IC50_Mean
Chain of Dual specificity protein phosphatase 3 (P51452 whole entry): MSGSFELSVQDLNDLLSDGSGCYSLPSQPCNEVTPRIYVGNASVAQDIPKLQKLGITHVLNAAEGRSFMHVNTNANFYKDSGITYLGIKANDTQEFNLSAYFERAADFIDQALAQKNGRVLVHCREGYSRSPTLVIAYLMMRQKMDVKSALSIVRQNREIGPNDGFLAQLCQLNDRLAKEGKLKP

HEK293 = assay: cells; assay type: functional, cell-based; conditions: Homo sapiens
[10] = biological target: T4, Nuclear receptor subfamily 0 group B member 1 (Homo sapiens, UniProt P51843); assay: Luminescence-based cell-based high throughput dose response assay for inhibitors of the orphan nuclear receptor subfamily 0, group B, member 1 (DAX1; NR0B1). [Related pubchem assays (depositor defined):AID504766, AID504790]; assay type: functional
T4 sequence (P51843 whole entry): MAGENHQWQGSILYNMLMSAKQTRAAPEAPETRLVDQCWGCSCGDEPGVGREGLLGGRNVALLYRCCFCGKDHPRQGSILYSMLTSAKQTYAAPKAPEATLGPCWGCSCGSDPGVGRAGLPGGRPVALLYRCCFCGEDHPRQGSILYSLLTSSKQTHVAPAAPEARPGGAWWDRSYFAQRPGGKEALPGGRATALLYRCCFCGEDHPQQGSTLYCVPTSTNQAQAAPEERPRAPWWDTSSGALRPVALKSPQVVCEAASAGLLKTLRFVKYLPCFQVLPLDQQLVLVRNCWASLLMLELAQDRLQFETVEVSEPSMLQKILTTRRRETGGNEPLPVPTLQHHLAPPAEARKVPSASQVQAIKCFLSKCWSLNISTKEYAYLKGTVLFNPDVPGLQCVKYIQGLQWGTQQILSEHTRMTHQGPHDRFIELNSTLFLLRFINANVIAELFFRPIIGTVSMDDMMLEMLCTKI

Leucine aminopeptidase = biological target: T5, Leucine aminopeptidase (Plasmodium falciparum 3D7, UniProt Q8IL11); assay: P. falciparum M17LAP inhibitors, primary screen, biochemical, fluorogenic H-Leu-NHMec substrate, 1536-well (AID 1619); assay type: functional
T5 sequence (Q8IL11 whole entry): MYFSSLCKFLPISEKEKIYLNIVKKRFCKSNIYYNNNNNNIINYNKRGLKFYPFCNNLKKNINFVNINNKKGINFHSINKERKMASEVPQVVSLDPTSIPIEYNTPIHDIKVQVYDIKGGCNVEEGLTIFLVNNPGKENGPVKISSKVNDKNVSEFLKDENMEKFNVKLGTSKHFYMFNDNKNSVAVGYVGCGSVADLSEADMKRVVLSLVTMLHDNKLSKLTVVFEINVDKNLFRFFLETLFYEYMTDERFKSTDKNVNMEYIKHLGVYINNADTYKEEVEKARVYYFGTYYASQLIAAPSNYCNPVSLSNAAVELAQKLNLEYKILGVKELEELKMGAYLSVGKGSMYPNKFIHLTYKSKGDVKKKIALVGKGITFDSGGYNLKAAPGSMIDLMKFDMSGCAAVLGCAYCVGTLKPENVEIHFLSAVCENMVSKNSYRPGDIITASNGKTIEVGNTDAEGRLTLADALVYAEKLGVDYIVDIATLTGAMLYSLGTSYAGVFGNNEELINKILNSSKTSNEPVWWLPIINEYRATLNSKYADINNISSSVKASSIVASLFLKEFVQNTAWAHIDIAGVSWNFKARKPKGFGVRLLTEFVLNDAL

[11] = NIH-3T3 fibroblast cytotoxicity, dose response, cytotoxicity control, cell-based, fluorescence, Alamar Blue, secondary assay (AID 2327); assay type: functional;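 note: NIH-3T3 mouse fibroblasts cultured with fluconazole at 8 µg/mL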
[12] = C. albicans growth with fluconazole, confirmation, fluorescence, retest (AID 2467); assay type: functional, cell-based
[13] = biological target: T6, Serine/threonine-protein phosphatase (Candida dubliniensis (strain CD36 / CBS 7987 / NCPF 3949 / NRRLY-17841) (Yeast), UniProt B9W6M3); assay: calcineurin pathway inhibitors in yeast reporter, dose response, S. cerevisiae, CDRE-lacZ, luminescence, secondary (AID 2388); assay type: functional, cell-based;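 note: yeast reporter cells carrying a calcineurin-responsive lacZ construct stimulated with calcium chloride; luminescent beta-galactosidase reporter signal in whole cells rather than isolated phosphatase activity; potency for inhibition where a drop in reporter signal means calcineurin blockade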
T6 sequence (B9W6M3 whole entry): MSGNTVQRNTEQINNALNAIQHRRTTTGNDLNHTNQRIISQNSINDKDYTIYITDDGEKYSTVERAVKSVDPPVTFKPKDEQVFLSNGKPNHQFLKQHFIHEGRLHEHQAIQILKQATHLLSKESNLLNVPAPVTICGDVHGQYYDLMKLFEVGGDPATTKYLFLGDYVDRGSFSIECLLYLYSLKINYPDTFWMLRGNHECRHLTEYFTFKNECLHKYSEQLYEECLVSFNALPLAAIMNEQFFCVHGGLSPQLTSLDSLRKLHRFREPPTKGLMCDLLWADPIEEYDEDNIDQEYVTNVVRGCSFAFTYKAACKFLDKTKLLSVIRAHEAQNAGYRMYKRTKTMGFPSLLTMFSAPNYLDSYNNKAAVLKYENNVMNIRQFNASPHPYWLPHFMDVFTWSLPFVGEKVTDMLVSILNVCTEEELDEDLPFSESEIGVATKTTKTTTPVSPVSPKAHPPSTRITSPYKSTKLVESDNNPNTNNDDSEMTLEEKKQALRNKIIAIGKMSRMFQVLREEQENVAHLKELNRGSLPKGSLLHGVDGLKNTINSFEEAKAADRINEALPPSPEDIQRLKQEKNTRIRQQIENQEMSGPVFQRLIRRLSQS

[14] = biological target: ATP-dependent molecular chaperone HSP82 (Candida albicans (strain WO-1) (Yeast), UniProt C4YTQ8); assay: loss of DOC-induced GRE-beta-galactosidase reporter signal, dose response, Hsp90 inhibitor project, S. cerevisiae, luminescence (AID 2400); assay type: functional, cell-based;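 note: beta-galactosidase luminescence from glucocorticoid response element reporter as proxy for Hsp90 function; inhibitor potency where signal loss means Hsp90 inhibition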
Chain of ATP-dependent molecular chaperone HSP82 (C4YTQ8 whole entry): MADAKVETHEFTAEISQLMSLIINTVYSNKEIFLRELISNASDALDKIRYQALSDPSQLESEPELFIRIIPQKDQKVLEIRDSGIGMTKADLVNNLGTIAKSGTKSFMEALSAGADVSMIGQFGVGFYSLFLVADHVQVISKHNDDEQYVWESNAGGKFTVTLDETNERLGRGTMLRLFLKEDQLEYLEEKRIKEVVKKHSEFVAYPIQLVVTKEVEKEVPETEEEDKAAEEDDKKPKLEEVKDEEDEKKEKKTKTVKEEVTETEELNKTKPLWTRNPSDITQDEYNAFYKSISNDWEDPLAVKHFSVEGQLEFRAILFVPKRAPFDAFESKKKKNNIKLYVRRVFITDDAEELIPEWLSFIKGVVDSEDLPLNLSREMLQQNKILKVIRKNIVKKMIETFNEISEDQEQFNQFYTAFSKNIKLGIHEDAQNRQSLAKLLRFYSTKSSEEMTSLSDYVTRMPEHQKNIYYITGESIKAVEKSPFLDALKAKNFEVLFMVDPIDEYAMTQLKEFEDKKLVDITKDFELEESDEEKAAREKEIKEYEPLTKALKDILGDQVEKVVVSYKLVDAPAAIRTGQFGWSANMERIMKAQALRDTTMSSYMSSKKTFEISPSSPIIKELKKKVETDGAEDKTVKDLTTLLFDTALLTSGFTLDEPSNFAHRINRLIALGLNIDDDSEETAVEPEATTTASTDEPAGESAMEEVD

With `CC(=O)NN1C(=O)c2ccc3c4c(ccc(c24)C1=O)C(=O)N(NC(C)=O)C3=O` the AC50 (INS1) was 0.652 µM (active), the IC50 [1] was 0.0707 µM (active) and the IC50 [2] was 76.8 µM (inactive). For the same molecule, the IC50 [3] was 0.445 µM (active).
For `COc1ccc(Nc2nc(NCc3cccs3)nc3ccsc23)cc1OC`, the IC50 [4] was 11.6 µM (active), the IC50 [5] was 16.4 µM (active) and the IC50 [6] was 22.7 µM (inactive).
For `COCCN(C(=S)Nc1c(C)cc(C)cc1C)C(C)c1cccnc1` (stereo unspecified), the IC50 [7] was 1.71 µM (active), the IC50 [8] was > 80 µM (inactive) and the IC50 [9] was 0.696 µM (active).
In the case of `COC(=O)c1sc(=S)n(Cc2ccccc2)c1C`, the IC50 (HEK293) is reported as > 67.5 µM (inactive) and the IC50 [10] is reported as > 67.5 µM (inactive).
In the case of `COC(=O)C1(Cc2ccc(O)cc2)OC(=O)C(O)=C1c1ccc(O)cc1` (stereo unspecified), the IC50 (HEK293) is reported as 56.1 µM (inactive) and the IC50 [10] is reported as > 67.5 µM (inactive).
With `Cc1[nH]c(C(=O)N/N=C/c2ccc(C(=O)O)cc2)c(C)c1C(=O)N/N=C/c1ccc(C(=O)O)cc1` the IC50 (Leucine aminopeptidase) was 45.7 µM (active) and the IC50 [2] was 114 µM (inactive).
With `Nc1ccc(C(=O)N/N=C\c2ccc(OC(=O)c3ccccc3Cl)cc2)cc1` the EC50 [11] was > 160 µM (inconclusive), the EC50 [12] was 0.797 µM (active) and the EC50 [13] was > 180 µM (inactive). The EC50 [14] was > 160 µM (inactive).
In the case of `CCc1cc(-c2nnc(S)n2-c2ccccc2C)cs1`, the EC50 [11] is reported as > 150 µM (inactive), the EC50 [12] is reported as 0.363 µM (active) and the EC50 [13] is reported as > 180 µM (inactive). The EC50 [14] was > 160 µM (inactive).
With `COCCNC(=O)C(c1ccc(Cl)cc1)N(Cc1ccco1)C(=O)CCC(=O)Nc1ccccn1` (stereo unspecified) the IC50 (HEK293) was > 67.5 µM (inactive) and the IC50 [10] was > 67.5 µM (inactive).
